# Counter-ions that a name gives are not always drawn.
# Assay: pH of aqueous lidocaine hydrochloride solution brought into contact with an activated carbon fiber polarizable electrode
# Assay type: physicochemical
# Details: after contact with polarizable electrode composed of activated carbon fibers, within an extremely short time period
structure (smiles),measurement,value
CCN(CC)CC(=O)Nc1c(C)cccc1C [lidocaine hydrochloride],pH value of aqueous solution,about 2.5
